Results from patent US20100104621A1, “TREATING ADHD AND OTHER DISEASES INVOLVING INFLAMMATION” (CONNECTED HEALTH SYSTEMS, LLC, priority 2007, published 2010).

Experiments:
VEGF = conditions: animal studies; cited from earlier work
ovarian cancer = conditions: in 10 days, animal studies; cited from earlier work
[1] = test system: patient with OCD and ADHD, and their child; assay: Example 4: family with history of ADHD, OCD and cancer; assay type: in vivo, human
Text: The 5HT2A receptor has been associated with OCD, Seasonal Affective Disorder, Alcoholism, and a predisposition toward Schizophrenia. The gene for this receptor is found on chromosome 13. A patient presents with OCD and ADHD. Two of their children also are diagnosed with OCD and ADHD. […] They test positive for BRCA2 which is also found on chromosome 13 in the same region as the gene for the 5HT2A receptor.
Lowered catecholamines lead to slightly elevated prolactin and can alter GnRH. Elevated GnRH leads to spikes in estrogen and progesterone and may eventually lead to premature ovarian failure along with alterations in inflammation and co-factors. Elevated interleukins lead to increased free radical production and damage to DNA. Lowered dopamine would allow for angiogenesis. Elevated interleukins could induce CREB and increase the expression of ICAM and VCAM. BRCA2 lowers p53, p21 (tumor suppressor genes) as well as RAD51, which repairs damage to DNA. Catecholamines may interact with genes involved in cancer via common second messenger systems. Laboratory tests reveal that the patient has a high vitamin B6 level of 100, and an abnormal amino acid profile.
Treatment of the patient includes administering an extended release CNS stimulant at an appropriate dosage to achieve the desired therapeutic effect, substantially around the clock. […]

[2] = test system: obese person diagnosed with ADHD; assay: Example 5: treatment of obese person with ADHD; assay type: in vivo, human; conditions: with Adderall XR; amino acid supplements for 4 months then stopped
Text: An obese person presents complaining of depression. They are on Lipitor for high cholesterol and has a heart rate of 116 and a blood pressure of 166/112. They also have “heart burn”. They are diagnosed with ADHD and titrated up to 15 mgs of Adderall XR three times a day. Their heart rate decreases to 100 at the first visit four weeks later and after 8 weeks it is 88. Based on lab reports, their vitamin B6 level is elevated at 56 and they are deficient in arginine, ornithine, histidine, threonine, and taurine along with other amino acids. They also have an elevated IL-6 level. Their vitamin D3 level is also very low. They are started on P-5-P and is supplemented with the aforementioned amino acids to help replenish their body. Their taurine level is 18 and normal is at 54. They are a candidate for developing a cardiac arrhythmia.
[…] Their blood pressure and heart rate continue to decline and they begin to lose weight despite having a normal appetite. […] Their depression is gone and they are dreaming about becoming a lawyer. They remain on Adderall XR, however their dose is decreased to 10 mgs three times a day. They remain on P-5-P. The patient's amino acid profile is normal and their CRP is normal. CRP is an indirect measure of IL-6 and is impacted by low levels of P-5-P.

[3] = test system: person with stage 4 ovarian cancer; assay: Example 6: person with stage 4 ovarian cancer; assay type: in vivo, human; conditions: with Adderall XR
Text: A person presents with stage 4 ovarian cancer, skin picking, irritable bowel syndrome, PMS, allergies, and a tonsillectomy. They are BRCA1 positive and lost their parent due to breast cancer. Other family members have succumbed to breast cancer, pancreatic cancer, and colon cancer. They are screened for ADHD and is started on Adderall XR and titrated up to 15 mgs three times a day. They are tapered off Prozac for depression. Six weeks later they state that their depression is gone and their energy level is back to normal and their strength is retuning. Their nausea is also gone. […] When they ran out of vitamin B6, their skin picking returns in one week, but stops the day they resume taking vitamin B6.
Catecholamines may interact with genes involved in cancer in certain tissues. BRCA1 knocks p21, p53, and RAD51 out. Genes can be turned on and off based on signaling. Their amino acid profile fits with a defect in pyridoxine-5′-phosphate oxidase which is located on […]. This is beside BRCA1 on chromosome 17. It is possible the patient has a defect in SLC6A4 not ADHD 2 on 17p11.2. 17p11.2 is the site of serine hydroxymethyltransferase. Additionally, it is possible that second messengers that are inactivated by BRCA-1 are responsible for lowering their catecholamines. […]

[4] = test system: pyramidal neurons in the medial prefrontal cortex; conditions: after 12 days of continuous administration; cited from earlier work

NCCc1ccc(O)c(O)c1 [Dopamine]
effect on VEGF (VEGF): inhibit | shrinkage of ovarian cancer (ovarian cancer): 80%

Cc1ncc(COP(=O)(O)O)c(C=O)c1O [P-5-P, pyridoxal 5′-phosphate]
amino acid profile ([1]; child, with around the clock stimulant, fish oil and antioxidants): returns to normal | amino acid profile ([1]; parent, 100 mgs, with extended release CNS stimulant): corrects | CRP [2]: normal | amino acid profile [2]: normal | skin picking [3]: stops that same day

CC(N)Cc1ccccc1 (centres unmarked) [amphetamine]
dendritic length and branches of pyramidal neurons in the medial prefrontal cortex [4]: increase in dendritic length and branches
